The KD is the concentration at which binding is half-saturated. The term Kd denotes a measure of binding affinity in units of concentration. Read a low Kd as a tighter complex.

KD and Kd data for 1 molecule are collected here from article PMC9658295, “The RSL3 Induction of KLK Lung Adenocarcinoma Cell Ferroptosis by Inhibition of USP11 Activity and the NRF2-GSH Axis” (Cancers, 2022).

In assay [1] the target is T1, USP11 (Homo sapiens, UniProt P51784).
T1 construct: biotin-labelled for BLI
The experiment in a line: bio-layer interferometry (Octet), biotinylated protein on SSA sensors, […] global fit. The format is binding. The following applies: PBS-T, 30 °C; RSL3 6.81-218 μM; unreliable (KD above the highest concentration tested); protein refolded from 8 M urea.

Assay [2] addresses T2, USP11 (Homo sapiens, UniProt P51784, Q402E/Y833E).
T2 construct: biotin-labelled for BLI
The description is as above. It is filed as binding.

T1 sequence (P51784 whole entry): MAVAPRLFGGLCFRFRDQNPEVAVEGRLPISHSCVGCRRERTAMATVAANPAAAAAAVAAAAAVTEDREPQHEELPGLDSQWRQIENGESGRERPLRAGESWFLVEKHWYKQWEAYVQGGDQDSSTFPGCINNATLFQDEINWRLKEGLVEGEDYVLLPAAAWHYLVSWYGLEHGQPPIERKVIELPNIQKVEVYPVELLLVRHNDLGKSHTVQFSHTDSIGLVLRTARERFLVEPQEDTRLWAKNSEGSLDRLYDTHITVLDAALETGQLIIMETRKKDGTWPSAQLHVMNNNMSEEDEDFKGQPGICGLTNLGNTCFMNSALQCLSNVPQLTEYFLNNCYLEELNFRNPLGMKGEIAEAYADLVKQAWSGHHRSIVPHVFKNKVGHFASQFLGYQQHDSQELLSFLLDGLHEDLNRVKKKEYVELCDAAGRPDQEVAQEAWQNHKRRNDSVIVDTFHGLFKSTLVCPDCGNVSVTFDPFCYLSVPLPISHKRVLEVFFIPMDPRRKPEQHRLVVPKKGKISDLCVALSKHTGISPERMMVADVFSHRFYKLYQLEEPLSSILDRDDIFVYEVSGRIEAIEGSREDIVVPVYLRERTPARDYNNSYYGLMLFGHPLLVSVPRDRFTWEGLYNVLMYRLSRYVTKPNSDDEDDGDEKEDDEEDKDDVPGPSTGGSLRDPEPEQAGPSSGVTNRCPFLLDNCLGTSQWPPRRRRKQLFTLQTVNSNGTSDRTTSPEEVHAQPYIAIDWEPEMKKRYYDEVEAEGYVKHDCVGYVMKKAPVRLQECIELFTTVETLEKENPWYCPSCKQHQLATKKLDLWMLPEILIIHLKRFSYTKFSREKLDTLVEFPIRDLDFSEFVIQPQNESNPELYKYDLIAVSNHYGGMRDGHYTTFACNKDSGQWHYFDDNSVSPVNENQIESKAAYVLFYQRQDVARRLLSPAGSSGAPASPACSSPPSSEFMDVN
T2 sequence (P51784 whole entry Q402E/Y833E): as the sequence (P51784 whole entry) above, with Q402E, Y833E counted along it

`COC(=O)c1ccc([C@H]2c3[nH]c4ccccc4c3C[C@H](C(=O)OC)N2C(=O)CCl)cc1` [RSL3] displayed a KD on USP11 [1] of 340 µM. On USP11 [2], this molecule returned an equilibrium dissociation constant (Kd) of 190 µM.
